Assay results as given in patent publication US9744222B2, “Peptide for vaccine” (Circassia Limited, priority 2007, dated 2017).
Where a SMILES comes first, the peptide text is derived from it.

Tested on: PBMC's
Assay: Cytokine release assay (IL-13, IFN-gamma)
Type: cell-based, human
Conditions: IL-13 or IFN-gamma response greater than 100 pg/ml
Method: Cytokine secretion profiles from PBMC's are analysed in response to the peptide stimulation using the peptides from Example 3.
Thus, an individual was considered to have responded to a peptide if cells from that individual yielded a response greater than 100 pg/ml for either […] or IFN-gamma.

Q: With SYYRYVAREQS [HDM205] as the molecule, how does the “Ranking of peptides by percentage of responders (in words)” value read?
A: top five peptides

Tested on: not listed separately
Assay: Solubility pre-screen of peptides
Conditions: pre-screened for solubility in an aqueous, acidic milieu; YES/NO
Method: Methods The assay employed is a competitive MHC class II binding assay, wherein each peptide is analysed for its ability to displace a known control binder from each of the human MHC class II allotypes investigated.
Also shown is the solubility status of the peptide at the highest concentrations in the aqueous solution of the binding assay. The value illustrates the lowest concentration at which an insoluble white precipitate is seen.

Q: Which Solubility test does the source give for `CC[C@H](C)[C@H](NC(=O)[C@H](C)NC(=O)[C@H](C)NC(=O)[C@@H](NC(=O)[C@H](C)NC(=O)[C@H](CCC(=O)O)NC(=O)[C@H](CC(=O)O)NC(=O)[C@@H](NC(=O)[C@H](C)NC(=O)[C@@H](N)CCCCN)C(C)C)C(C)C)C(=O)N[C@@H](CCC(=O)O)C(=O)N[C@@H](CCCCN)C(=O)N[C@@H](CO)C(=O)O` [HDM28] (H-KAVDEAVAAIEKS-OH; N-terminus and C-terminus assumed) here?
A: YES

Q: For `CSCC[C@H](NC(=O)[C@@H]1CCCN1C(=O)[C@H](CC(=O)O)NC(=O)[C@H](Cc1ccccc1)NC(=O)[C@@H](NC(=O)[C@@H](N)CCC(=O)O)[C@@H](C)O)C(=O)N[C@@H](CCCCN)C(=O)N[C@H](C(=O)N1CCC[C@H]1C(=O)N[C@@H](CC(=O)O)C(=O)N[C@@H](Cc1c[nH]cn1)C(=O)N[C@@H](CO)C(=O)N[C@@H](CC(=O)O)C(=O)N[C@@H](CCCCN)C(=O)O)C(C)C` [HDM29A] (H-ETFDPMKVPDHSDK-OH; N-terminus and C-terminus assumed), which Solubility test is on record?
A: YES

Q: For `CSCC[C@H](NC(=O)[C@@H]1CCCN1C(=O)[C@H](CC(=O)O)NC(=O)[C@H](Cc1ccccc1)NC(=O)[C@@H](NC(=O)[C@H](CCC(=O)O)NC(=O)[C@H](CO)NC(=O)[C@@H](N)CCCCN)[C@@H](C)O)C(=O)N[C@@H](CCCCN)C(=O)N[C@H](C(=O)N1CCC[C@H]1C(=O)N[C@@H](CC(=O)O)C(=O)N[C@@H](Cc1c[nH]cn1)C(=O)N[C@@H](CO)C(=O)N[C@@H](CC(=O)O)C(=O)O)C(C)C` [HDM29B] (H-KSETFDPMKVPDHSD-OH; N-terminus and C-terminus assumed), which Solubility test is on record?
A: YES

Q: With `CSCC[C@H](NC(=O)[C@@H]1CCCN1C(=O)[C@H](CC(=O)O)NC(=O)[C@H](Cc1ccccc1)NC(=O)[C@@H](NC(=O)[C@@H](N)CCC(=O)O)[C@@H](C)O)C(=O)N[C@@H](CCCCN)C(=O)N[C@H](C(=O)N1CCC[C@H]1C(=O)N[C@@H](CC(=O)O)C(=O)N[C@@H](Cc1c[nH]cn1)C(=O)N[C@@H](CO)C(=O)N[C@@H](CC(=O)O)C(=O)O)C(C)C` [HDM29] (H-ETFDPMKVPDHSD-OH; N-terminus and C-terminus assumed) as the molecule, how does the Solubility test read?
A: YES

Q: With `CC[C@H](C)[C@H](NC(=O)CNC(=O)[C@@H](NC(=O)[C@H](Cc1c[nH]cn1)NC(=O)[C@H](CCCNC(=N)N)NC(=O)[C@H](CCC(=O)O)NC(=O)[C@H](Cc1ccccc1)NC(=O)[C@H](CCCCN)NC(=O)[C@@H](N)CC(=O)O)[C@@H](C)CC)C(=O)N[C@H](C(=O)N[C@@H](CC(=O)O)C(=O)N[C@@H](CC(C)C)C(=O)N[C@@H](CCCCN)C(=O)O)[C@@H](C)CC` [HDM30] (H-DKFERHIGIIDLK-OH; N-terminus and C-terminus assumed) as the molecule, how does the Solubility test read?
A: YES

Q: With `CC[C@H](C)[C@H](NC(=O)CNC(=O)[C@@H](NC(=O)[C@@H](N)Cc1c[nH]cn1)[C@@H](C)CC)C(=O)N[C@H](C(=O)N[C@@H](CC(=O)O)C(=O)N[C@@H](CC(C)C)C(=O)N[C@@H](CCCCN)C(=O)NCC(=O)N[C@@H](CCC(=O)O)C(=O)N[C@@H](CC(C)C)C(=O)N[C@@H](CC(=O)O)C(=O)N[C@@H](CCSC)C(=O)N[C@@H](CCCNC(=N)N)C(=O)N[C@@H](CC(N)=O)C(=O)O)[C@@H](C)CC` [HDM31A] (H-HIGIIDLKGELDMRN-OH; N-terminus and C-terminus assumed) as the molecule, how does the Solubility test read?
A: YES

Q: With `CC[C@H](C)[C@H](N)C(=O)N[C@@H](CC(=O)O)C(=O)N[C@@H](CC(C)C)C(=O)N[C@@H](CCCCN)C(=O)NCC(=O)N[C@@H](CCC(=O)O)C(=O)N[C@@H](CC(C)C)C(=O)N[C@@H](CC(=O)O)C(=O)N[C@@H](CCSC)C(=O)N[C@@H](CCCNC(=N)N)C(=O)N[C@@H](CC(N)=O)C(=O)N[C@H](C(=O)N[C@@H](CCC(N)=O)C(=O)N[C@H](C(=O)N[C@@H](CCCNC(=N)N)C(=O)O)C(C)C)[C@@H](C)CC` [HDM32A] (H-IDLKGELDMRNIQVR-OH; N-terminus and C-terminus assumed) as the molecule, how does the Solubility test read?
A: YES

Q: For `CC[C@H](C)[C@H](N)C(=O)N[C@@H](CC(=O)O)C(=O)N[C@@H](CC(C)C)C(=O)N[C@@H](CCCCN)C(=O)NCC(=O)N[C@@H](CCC(=O)O)C(=O)N[C@@H](CC(C)C)C(=O)N[C@@H](CC(=O)O)C(=O)N[C@@H](CCSC)C(=O)N[C@@H](CCCNC(=N)N)C(=O)N[C@@H](CC(N)=O)C(=O)N[C@H](C(=O)N[C@@H](CCC(N)=O)C(=O)O)[C@@H](C)CC` [HDM32] (H-IDLKGELDMRNIQ-OH; N-terminus and C-terminus assumed), which Solubility test is on record?
A: YES

Q: With `CC[C@H](C)[C@H](NC(=O)[C@H](CC(N)=O)NC(=O)[C@H](CCCNC(=N)N)NC(=O)[C@H](CCSC)NC(=O)[C@H](CC(=O)O)NC(=O)[C@@H](N)CC(C)C)C(=O)N[C@@H](CCC(N)=O)C(=O)N[C@H](C(=O)N[C@@H](CCCNC(=N)N)C(=O)NCC(=O)N[C@@H](CC(C)C)C(=O)N[C@@H](CCCCN)C(=O)N[C@@H](CCC(N)=O)C(=O)O)C(C)C` [HDM33] (H-LDMRNIQVRGLKQ-OH; N-terminus and C-terminus assumed) as the molecule, how does the Solubility test read?
A: YES

Q: For `CC[C@H](C)[C@H](NC(=O)[C@H](CC(N)=O)NC(=O)[C@@H](N)CCCNC(=N)N)C(=O)N[C@@H](CCC(N)=O)C(=O)N[C@H](C(=O)N[C@@H](CCCNC(=N)N)C(=O)NCC(=O)N[C@@H](CC(C)C)C(=O)N[C@@H](CCCCN)C(=O)N[C@@H](CCC(N)=O)C(=O)N[C@@H](CCSC)C(=O)N[C@@H](CCCCN)C(=O)N[C@@H](CCCNC(=N)N)C(=O)N[C@H](C(=O)NCC(=O)O)C(C)C)C(C)C` [HDM34] (H-RNIQVRGLKQMKRVG-OH; N-terminus and C-terminus assumed), which Solubility test is on record?
A: YES

Q: Which Solubility test does the source give for `CSCC[C@H](NC(=O)[C@H](CCC(N)=O)NC(=O)[C@H](CCCCN)NC(=O)[C@H](CC(C)C)NC(=O)CNC(=O)[C@@H](N)CCCNC(=N)N)C(=O)N[C@@H](CCCCN)C(=O)N[C@@H](CCCNC(=N)N)C(=O)N[C@H](C(=O)NCC(=O)N[C@@H](CC(=O)O)C(=O)N[C@@H](C)C(=O)N[C@@H](CC(N)=O)C(=O)O)C(C)C` [HDM35] (H-RGLKQMKRVGDAN-OH; N-terminus and C-terminus assumed) here?
A: YES

Q: With `CC(C)[C@H](NC(=O)[C@H](CCCNC(=N)N)NC(=O)[C@@H](N)CCCCN)C(=O)NCC(=O)N[C@@H](CC(=O)O)C(=O)N[C@@H](C)C(=O)N[C@@H](CC(N)=O)C(=O)N[C@H](C(=O)N[C@@H](CCCCN)C(=O)N[C@@H](CO)C(=O)N[C@@H](CCC(=O)O)C(=O)N[C@@H](CC(=O)O)C(=O)NCC(=O)O)C(C)C` [HDM36] (H-KRVGDANVKSEDG-OH; N-terminus and C-terminus assumed) as the molecule, how does the Solubility test read?
A: YES

Q: With `CC(C)[C@H](NC(=O)CNC(=O)[C@H](CC(=O)O)NC(=O)[C@H](CCC(=O)O)NC(=O)[C@H](CO)NC(=O)[C@H](CCCCN)NC(=O)[C@@H](NC(=O)[C@H](CC(N)=O)NC(=O)[C@H](C)N)C(C)C)C(=O)N[C@H](C(=O)N[C@@H](CCCCN)C(=O)N[C@@H](C)C(=O)N[C@@H](Cc1c[nH]cn1)C(=O)O)C(C)C` [HDM37] (H-ANVKSEDGVVKAH-OH; N-terminus and C-terminus assumed) as the molecule, how does the Solubility test read?
A: YES

Q: Which Solubility test does the source give for `CC[C@H](C)[C@H](NC(=O)[C@H](C)NC(=O)[C@@H](N)[C@@H](C)O)C(=O)N[C@@H](Cc1ccccc1)C(=O)N[C@@H](CCC(N)=O)C(=O)N[C@@H](CC(=O)O)C(=O)N[C@H](C(=O)N[C@H](C(=O)N[C@@H](CCCNC(=N)N)C(=O)N[C@@H](C)C(=O)N[C@@H](CCC(=O)O)C(=O)N[C@@H](CCSC)C(=O)N[C@H](C(=O)N[C@@H](CCCCN)C(=O)O)[C@@H](C)O)C(C)C)[C@@H](C)O` [HDM48] (H-TAIFQDTVRAEMTK-OH; N-terminus and C-terminus assumed) here?
A: YES

Q: For `CSCC[C@H](NC(=O)[C@H](CCC(=O)O)NC(=O)[C@H](C)NC(=O)[C@H](CCCNC(=N)N)NC(=O)[C@@H](NC(=O)[C@@H](NC(=O)[C@@H](N)CC(=O)O)[C@@H](C)O)C(C)C)C(=O)N[C@H](C(=O)N[C@@H](CCCCN)C(=O)N[C@H](C(=O)N[C@@H](CC(C)C)C(=O)N[C@@H](C)C(=O)N1CCC[C@H]1C(=O)O)C(C)C)[C@@H](C)O` [HDM49] (H-DTVRAEMTKVLAP-OH; N-terminus and C-terminus assumed), which Solubility test is on record?
A: YES

Q: Which Solubility test does the source give for `CC(C)C[C@H](NC(=O)[C@H](CCC(=O)O)NC(=O)[C@H](CCCCN)NC(=O)[C@H](CCCCN)NC(=O)[C@H](Cc1ccccc1)NC(=O)[C@H](C)NC(=O)[C@@H]1CCCN1C(=O)[C@H](C)NC(=O)[C@H](CC(C)C)NC(=O)[C@@H](NC(=O)[C@@H](N)CCCCN)C(C)C)C(=O)N[C@@H](CCC(=O)O)C(=O)N[C@@H](CCCNC(=N)N)C(=O)O` [HDM50] (H-KVLAPAFKKELER-OH; N-terminus and C-terminus assumed) here?
A: YES

Tested on: not listed separately
Assay: Precipitation in aqueous solution of the binding assay
Type: physicochemical
Conditions: lowest concentration at which an insoluble white precipitate is seen in the aqueous solution of the binding assay
Text: This is a characteristic of promiscuous HLA-DRB1* binders.

Q: For HDDVVSMEYDLAYKL [HDM39A], which Precipitation in assay is on record?
A: 10000 µM

Q: For VSMEYDLAYKLGDLH [HDM40A], which Precipitation in assay is on record?
A: 10000 µM

Same assay, conditions: lowest concentration at which an insoluble white precipitate is seen, value in brackets

Q: For HDDVVSMEYDLAYKL [HDM39A], which Precipitation in assay is on record?
A: (1.8 mg/ml)

Q: For VSMEYDLAYKLGDLH [HDM40A], which Precipitation in assay is on record?
A: (1.8 mg/ml)
